Results as given in ChEMBL document CHEMBL5046263, “Characterization of the Aminosugar Biosynthetic and Regulatory Genes of Vicenistatin in Monodonata labio-Associated Streptomyces parvus SCSIO Mla-L010” (J Nat Prod, 2022).
Values after ≈ are worked out from the molar mass of the structure shown.

Key:
[1] = test system: Mycolicibacterium smegmatis; experiment: Antibacterial activity against Mycobacterium smegmatis ATCC607 assessed as bacterial growth inhibition; format: functional
Helicobacter pylori [2] = experiment: Antibacterial activity against Helicobacter pylori G27 assessed as bacterial growth inhibition; format: functional
Helicobacter pylori [3] = experiment: Antibacterial activity against Helicobacter pylori 159 assessed as bacterial growth inhibition; format: functional
Staphylococcus aureus [4] = experiment: Antibacterial activity against methicillin-resistant Staphylococcus aureus 16339 assessed as bacterial growth inhibition; format: functional
MCF7 = experiment: Cytotoxicity against human MCF7 cells assessed as reduction in cell viability after 72 hrs by MTT assay; format: functional, cell-based; conditions: MCF7, 72 h
A549 = experiment: Cytotoxicity against human A549 cells assessed as reduction in cell viability by after 72 hrs MTT assay; format: functional, cell-based; conditions: A549, 72 h
Staphylococcus aureus [5] = experiment: Antibacterial activity against methicillin-resistant Staphylococcus aureus 6917 assessed as bacterial growth inhibition; format: functional
Micrococcus luteus = experiment: Antibacterial activity against Micrococcus luteus ML01 assessed as bacterial growth inhibition; format: functional
Candida albicans [6] = experiment: Antifungal activity against Candida albicans C5 assessed as fungal growth inhibition; format: functional
HepG2 = experiment: Cytotoxicity against human HepG2 cells assessed as reduction in cell viability after 72 hrs by MTT assay; format: functional, cell-based; conditions: HepG2, 72 h
HeLa = experiment: Cytotoxicity against human HeLa cells assessed as reduction in cell viability after 72 hrs by MTT assay; format: functional, cell-based
Staphylococcus aureus [7] = experiment: Antibacterial activity against Staphylococcus aureus ATCC 29213 assessed as bacterial growth inhibition; format: functional
Staphylococcus aureus [8] = experiment: Antibacterial activity against methicillin-resistant Staphylococcus aureus 718306 assessed as bacterial growth inhibition; format: functional
Candida albicans [9] = experiment: Antifungal activity against Candida albicans ATCC SC5314 assessed as fungal growth inhibition; format: functional
Cryptococcus neoformans = experiment: Antifungal activity against Cryptococcus neoformans ATCC4906 assessed as fungal growth inhibition; format: functional
Staphylococcus aureus [10] = experiment: Antibacterial activity against methicillin-resistant Staphylococcus aureus shhs-E1 assessed as bacterial growth inhibition; format: functional
Staphylococcus aureus [11] = experiment: Antibacterial activity against methicillin-resistant Staphylococcus aureus 16162 assessed as bacterial growth inhibition; format: functional
Staphylococcus aureus [12] = experiment: Antibacterial activity against methicillin-resistant Staphylococcus aureus 745524 assessed as bacterial growth inhibition; format: functional
Bacillus subtilis = experiment: Antibacterial activity against Bacillus subtilis BS01 assessed as bacterial growth inhibition; format: functional
RKO = experiment: Cytotoxicity against human RKO cells assessed as reduction in cell viability after 72 hrs by MTT assay; format: functional, cell-based
HL-60 = experiment: Cytotoxicity against human HL-60 cells assessed as reduction in cell viability after 72 hrs by MTT assay; format: functional, cell-based; conditions: HL-60, 72 h
[13] = Cytotoxicity against human L02 cells assessed as reduction in cell viability after 72 hrs by MTT assay; format: toxicity, cell-based
[14] = Cytotoxicity against human BEAS-2B cells assessed as reduction in cell viability after 72 hrs by MTT assay; format: toxicity, cell-based

CC1(C)S[C@@H]2[C@H](NC(=O)[C@H](N)c3ccccc3)C(=O)N2[C@H]1C(=O)O [AMPICILLIN]
MIC [1]: 64 µg/mL (≈ 183 µM)
MIC (Helicobacter pylori [2]): 4 µg/mL (≈ 11.4 µM)
MIC (Helicobacter pylori [3]): 4 µg/mL (≈ 11.4 µM)

CN[C@H]1[C@@H](O)C[C@H](O[C@H]2C/C=C(\C)C/C(C)=C/C=C/CC[C@H](C)CNC(=O)/C=C/C=C/[C@@H]2C)O[C@@H]1C [VICENISTATIN]
MIC [1]: > 64 µg/mL
MIC (Staphylococcus aureus [4]): 0.06 µg/mL (≈ 0.12 µM)
IC50 (MCF7): 0.8 µM
IC50 (A549): 0.76 µM
MIC (Staphylococcus aureus [5]): 0.06 µg/mL (≈ 0.12 µM)
MIC (Micrococcus luteus): 0.06 µg/mL (≈ 0.12 µM)
MIC (Candida albicans [6]): 4 µg/mL (≈ 7.99 µM)
IC50 (HepG2): 2.01 µM
IC50 (HeLa): 1.38 µM
MIC (Staphylococcus aureus [7]): 0.06 µg/mL (≈ 0.12 µM)
MIC (Staphylococcus aureus [8]): 0.13 µg/mL (≈ 0.26 µM)
MIC (Candida albicans [9]): 4 µg/mL (≈ 7.99 µM)
MIC (Cryptococcus neoformans): 2 µg/mL (≈ 3.99 µM)
MIC (Staphylococcus aureus [10]): 0.13 µg/mL (≈ 0.26 µM)
MIC (Helicobacter pylori [2]): 1 µg/mL (≈ 2 µM)
MIC (Staphylococcus aureus [11]): 0.13 µg/mL (≈ 0.26 µM)
MIC (Staphylococcus aureus [12]): 0.06 µg/mL (≈ 0.12 µM)
MIC (Bacillus subtilis): 0.13 µg/mL (≈ 0.26 µM)
IC50 (RKO): 2.33 µM
MIC (Helicobacter pylori [3]): 1 µg/mL (≈ 2 µM)
IC50 (HL-60): 0.64 µM
IC50 at 72 h [13]: 0.89 µM
IC50 at 72 h [14]: 1.4 µM

C[C@@H]1[C@H](O)[C@@H](C)/C=C/C=C/C=C/C=C/C=C/C=C/C=C/[C@H](O[C@@H]2O[C@H](C)[C@@H](O)[C@H](N)[C@@H]2O)C[C@@H]2O[C@](O)(C[C@@H](O)C[C@@H](O)[C@H](O)CC[C@@H](O)C[C@@H](O)CC(=O)O[C@H]1C)C[C@H](O)[C@H]2C(=O)O [AMPHOTERICIN B]
MIC (Candida albicans [6]): 1 µg/mL (≈ 1.08 µM)
MIC (Candida albicans [9]): 1 µg/mL (≈ 1.08 µM)
MIC (Cryptococcus neoformans): 2 µg/mL (≈ 2.16 µM)

C/C1=C\C=C\CC[C@H](C)CNC(=O)/C=C/C=C/[C@H](C)[C@@H](O[C@H]2C[C@H](O)[C@H](N)[C@@H](C)O2)C/C=C(\C)C1
MIC [1]: 4 µg/mL (≈ 8.22 µM)
MIC (Staphylococcus aureus [4]): 0.5 µg/mL (≈ 1.03 µM)
IC50 (MCF7): 1.16 µM
IC50 (A549): 1.33 µM
MIC (Staphylococcus aureus [5]): 0.13 µg/mL (≈ 0.267 µM)
MIC (Micrococcus luteus): 0.25 µg/mL (≈ 0.514 µM)
MIC (Candida albicans [6]): 2 µg/mL (≈ 4.11 µM)
IC50 (HepG2): 2.09 µM
IC50 (HeLa): 1.29 µM
MIC (Staphylococcus aureus [7]): 0.13 µg/mL (≈ 0.267 µM)
MIC (Staphylococcus aureus [8]): 0.25 µg/mL (≈ 0.514 µM)
MIC (Candida albicans [9]): 1 µg/mL (≈ 2.05 µM)
MIC (Cryptococcus neoformans): 2 µg/mL (≈ 4.11 µM)
MIC (Staphylococcus aureus [10]): 0.25 µg/mL (≈ 0.514 µM)
MIC (Helicobacter pylori [2]): 1 µg/mL (≈ 2.05 µM)
MIC (Staphylococcus aureus [11]): 0.25 µg/mL (≈ 0.514 µM)
MIC (Staphylococcus aureus [12]): 0.25 µg/mL (≈ 0.514 µM)
MIC (Bacillus subtilis): 0.5 µg/mL (≈ 1.03 µM)
IC50 (RKO): 2.1 µM
MIC (Helicobacter pylori [3]): 1 µg/mL (≈ 2.05 µM)
IC50 (HL-60): 0.89 µM
IC50 at 72 h [13]: 5.36 µM
IC50 at 72 h [14]: 3.23 µM

CN[C@H](CC(C)C)C(=O)N[C@H]1C(=O)N[C@@H](CC(N)=O)C(=O)N[C@H]2C(=O)N[C@H]3C(=O)N[C@H](C(=O)N[C@H](C(=O)O)c4cc(O)cc(O)c4-c4cc3ccc4O)[C@H](O)c3ccc(c(Cl)c3)Oc3cc2cc(c3O[C@@H]2O[C@H](CO)[C@@H](O)[C@H](O)[C@H]2O[C@H]2C[C@](C)(N)[C@H](O)[C@H](C)O2)Oc2ccc(cc2Cl)[C@H]1O [VANCOMYCIN]
MIC (Micrococcus luteus): 0.13 µg/mL (≈ 0.0897 µM)
MIC (Staphylococcus aureus [8]): 0.25 µg/mL (≈ 0.173 µM)
MIC (Bacillus subtilis): 0.13 µg/mL (≈ 0.0897 µM)
